# Target: T1, cathepsin K (Homo sapiens, UniProt P43235)
# T1 sequence (P43235 115-329): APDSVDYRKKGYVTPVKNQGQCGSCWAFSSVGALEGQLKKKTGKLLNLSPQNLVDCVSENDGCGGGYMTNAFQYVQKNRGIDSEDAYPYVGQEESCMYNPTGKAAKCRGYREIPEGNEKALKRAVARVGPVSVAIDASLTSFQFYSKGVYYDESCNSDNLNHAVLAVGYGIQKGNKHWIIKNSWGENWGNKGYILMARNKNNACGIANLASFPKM
# Experiment: Cathepsin K inhibition studies (progress curve method, fluorogenic peptide substrate)
# Format: biochemical
# Details: human recombinant enzyme; substrate typically Cbz-Phe-Arg-AMC; 100 mM Na acetate pH 5.5, 20 mM cysteine, 5 mM EDTA, 10% DMSO
# Protocol: Determination of Cathepsin K Proteolytic Catalytic Activity
# All assays for cathepsin K were carried out with human recombinant enzyme. Standard assay conditions for the determination of kinetic constants used a fluorogenic peptide substrate, typically Cbz-Phe-Arg-AMC, and were determined in 100 mM Na acetate at pH 5.5 containing 20 mM cysteine and 5 mM EDTA. Stock substrate solutions were prepared at concentrations of 10 or 20 mM in DMSO with 20 uM final substrate concentration in the assays. All assays contained 10% DMSO. […] All assays were conducted at ambient temperature. Product fluorescence (excitation at 360 nm; emission at 460 nm) was monitored with a Perceptive Biosystems Cytofluor II fluorescent plate reader. […]
# Potential inhibitors were evaluated using the progress curve method. […] For those compounds whose progress curves were linear, apparent inhibition constants (Ki,app) were calculated according to equation 1 (Brandt et al., Biochemitsry, 1989, 28, 140): […]
# [AMC]=vsst+(v0−vss)[1−exp(−kobst)]/kobs (2) where [AMC] is the concentration of product formed over time t, v0 is the initial reaction velocity and vss is the final steady state rate. Values for kobs were then analyzed as a linear function of inhibitor concentration to generate an apparent second order rate constant (kobs/inhibitor concentration or kobs/[I]) describing the time-dependent inhibition. […]
smiles,measurement,value
"CC(C)C[C@H](NS(=O)(=O)c1cccc2cccnc12)C(=O)NC1COCC1=O (stereo partly drawn) [4-(R,S)-Amino-N-[(8-quinolinesulfonyl)-S-leucine]-3-tetrahydrofuran-3-one]",Ki,> 10 µM
